What is called Ki is a dissociation constant, usually derived from enzyme kinetics or from competition with a known ligand. As usually defined, the EC50 is the concentration needed to bring the measured effect to its halfway point. A higher EC50 goes with a less potent agent.

For one assay, the target named is human O-GlcNAcase (Homo sapiens (Human), UniProt O60502). The experiment in a line: Fluorescence-based assay for determination of KI values for inhibition of O-GlcNAcase activity. The class given is biochemical. To be noted: purified human O-GlcNAcase 0.7 nM, 2 mM 4-Methylumbelliferyl N-acetyl-β-D-glucosaminide, pH 7.0, Cheng-Prusoff; read-out: Fluorescence-based hOGA Ki. How it is done: Assay for Determination of KIValues for Inhibition of O-GlcNAcase Activity Experimental procedure for kinetic analyses: Enzymatic reactions were carried out in a reaction containing 50 mM NaH2PO4, 100 mM NaCl and 0.1% BSA (pH 7.0) using 2 mM 4-Methylumbelliferyl N-acetyl-β-D-glucosaminide dihydrate (Sigma M2133) dissolved in ddH2O, as a substrate. The amount of purified human O-GlcNAcase enzyme used in the reaction was 0.7 nM. Test compound of varying concentrations was added to the enzyme prior to initiation of the reaction. The reaction was performed at room temperature in a 96-well plate and was initiated with the addition of substrate. […] The slope of product production was determined for each concentration of compound tested and plotted, using standard curve fitting algorithms for sigmoidal dose response curves. The values for a four parameter logistic curve fit of the data were determined.
Sequence of human O-GlcNAcase (O60502 whole entry): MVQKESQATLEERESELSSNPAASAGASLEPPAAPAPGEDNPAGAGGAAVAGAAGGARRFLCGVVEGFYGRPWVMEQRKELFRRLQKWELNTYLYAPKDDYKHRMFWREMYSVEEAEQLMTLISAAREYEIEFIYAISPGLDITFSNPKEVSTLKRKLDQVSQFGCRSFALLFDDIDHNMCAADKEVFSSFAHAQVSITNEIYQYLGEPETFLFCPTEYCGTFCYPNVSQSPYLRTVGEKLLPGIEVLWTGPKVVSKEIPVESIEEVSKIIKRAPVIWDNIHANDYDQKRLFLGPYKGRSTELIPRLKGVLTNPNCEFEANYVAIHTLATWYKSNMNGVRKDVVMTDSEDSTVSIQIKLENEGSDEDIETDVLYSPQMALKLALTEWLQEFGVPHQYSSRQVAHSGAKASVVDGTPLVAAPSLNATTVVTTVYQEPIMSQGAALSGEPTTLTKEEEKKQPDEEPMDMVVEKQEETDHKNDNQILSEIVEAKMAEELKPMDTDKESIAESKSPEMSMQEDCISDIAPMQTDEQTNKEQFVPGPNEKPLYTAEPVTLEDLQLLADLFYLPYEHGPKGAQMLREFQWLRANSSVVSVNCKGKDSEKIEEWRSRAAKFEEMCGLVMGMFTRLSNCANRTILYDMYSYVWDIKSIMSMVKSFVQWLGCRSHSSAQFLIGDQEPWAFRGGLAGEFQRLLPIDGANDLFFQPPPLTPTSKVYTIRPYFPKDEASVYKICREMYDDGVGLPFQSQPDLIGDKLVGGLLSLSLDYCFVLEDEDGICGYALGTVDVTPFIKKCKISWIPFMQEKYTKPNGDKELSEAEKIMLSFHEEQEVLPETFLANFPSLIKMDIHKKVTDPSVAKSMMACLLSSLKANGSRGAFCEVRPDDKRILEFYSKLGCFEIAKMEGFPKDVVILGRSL

The test system of assay [1] is O-GlcNAcase in rat PC-12 cells. Kind of assay: Cell-based ELISA for cellular O-GlcNAcase inhibition (O-GlcNAcylated protein, RL-2 antibody). The settings on record: 24 h treatment, O-GlcNAcylated protein detected with RL-2 antibody. An excerpt:
Assay for Determination of Cellular Activity for Compounds that Inhibit O-GlcNAcase Activity
Inhibition of O-GlcNAcase, which removes O-GlcNAc from cellular proteins, results in an increase in the level of O-GlcNAcylated protein in cells. An increase in O-GlcNAcylated protein can be measured by an antibody, such as RL-2, that binds to O-GlcNAcylated protein. The amount of O-GlcNAcylated protein:RL2 antibody interaction can be measured by enzyme linked immunosorbant assay (ELISA) procedures.
A variety of tissue culture cell lines, expressing endogenous levels of O-GlcNAcase, can be utilized; examples include rat PC-12, and human U-87, or SK-N-SH cells. […] If desired, the total protein concentration of samples was determined using 20 μL of the sample using the BCA method.
The ELISA portion of the assay was performed in a black Maxisorp 96-well plate that was coated overnight at 4° C. with 100 μL/well of the cell lysate (1:10 dilution of the lysate with PBS containing protease inhibitors, phosphatase inhibitors, and PMSF). […] The detection reaction was incubated for 15 minutes at room temperature and then read with excitation at 530 nm and emission at 590 nm
The amount of O-GlcNAcylated protein, as detected by the ELISA assay, was plotted for each concentration of test compound using standard curve fitting algorithms for sigmoidal dose response curves. […]

`CN(C)C1=N[C@@H]2[C@@H](O)[C@@H](O)[C@@H](CO)O[C@@H]2S1` [Example 2, (3aR,5R,6R,7R,7aR)-2-(dimethylamino)-5-(hydroxymethyl)-5,6,7,7a-tetrahydro-3aH-pyrano[3,2-d]thiazole-6,7-diol]: the Ki at human O-GlcNAcase stood at 28.6 nM. For the compound `CNC1=N[C@@H]2[C@H](O)[C@H](O)[C@@H](CO)O[C@@H]2S1` [Example 4, (3aR,5R,6S,7S,7aR)-5-(hydroxymethyl)-2-(methylamino)-5,6,7,7a-tetrahydro-3aH-pyrano[3,2-d]thiazole-6,7-diol], the EC50 in assay [1] worked out at 109 nM.

Values taken from US9701693B2, “Selective glycosidase inhibitors and uses thereof” (Alectos Therapeutics Inc., priority 2011, dated 2017).
